Source: ChEMBL document CHEMBL3091320, “6-(4-Pyridyl)pyrimidin-4(3H)-ones as CNS penetrant glycogen synthase kinase-3β inhibitors” (Bioorg Med Chem Lett, 2013)

Assays:
[1] = Clearance in rat microsomes; type: ADME, Microsome
[2] = test system: Rattus norvegicus; experiment: Reduction in tau protein phosphorylation in Wistar rat prefrontal cortex at 100 mg/kg, ip after 15 mins to 2 hrs by western blot analysis relative to vehicle-treated control; type: functional; set-up: scale not given: the % may be the effect or the level left; conditions: route intraperitoneal
[3] = biological target: Glycogen synthase kinase-3 beta (Homo sapiens, UniProt P49841); experiment: Inhibition of human recombinant GSK3beta using prephosphorylated GS1 peptide as substrate after 1 hr by liquid scintillation spectrometry
Chain of Glycogen synthase kinase-3 beta (P49841 whole entry): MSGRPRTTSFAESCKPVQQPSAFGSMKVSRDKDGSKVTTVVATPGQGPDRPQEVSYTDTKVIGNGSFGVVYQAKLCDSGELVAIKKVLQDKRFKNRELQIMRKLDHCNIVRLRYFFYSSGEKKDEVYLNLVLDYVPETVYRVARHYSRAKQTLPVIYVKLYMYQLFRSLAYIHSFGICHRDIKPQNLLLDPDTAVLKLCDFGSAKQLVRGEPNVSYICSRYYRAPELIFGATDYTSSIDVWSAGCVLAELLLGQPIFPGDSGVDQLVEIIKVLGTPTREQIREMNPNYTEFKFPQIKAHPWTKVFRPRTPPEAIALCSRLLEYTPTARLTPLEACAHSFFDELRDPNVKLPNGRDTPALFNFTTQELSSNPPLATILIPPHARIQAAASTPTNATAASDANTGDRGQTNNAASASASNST

[4] = Permeability co-efficient in Wistar rat brain at 30 mg/kg, ip measured at 0.25 hrs; type: ADME, organism-based; set-up: dose 30 mg/kg, route intraperitoneal
[5] = Inhibition of CYP1A (unknown origin); type: ADME, Homo sapiens
[6] = test system: Brain; experiment: Drug uptake in Wistar rat brain at 30 mg/kg, ip measured at 0.25 hrs; type: ADME, organism-based; set-up: dose 30 mg/kg, route intraperitoneal; conditions: in vivo

In the case of `Cn1c(NCC(=O)c2ccccc2)nc(-c2ccncc2)cc1=O`, the CL [1] is reported as 172 µL/min/mg, the Activity [2] is reported as 24% and the IC50 [3] is reported as 8.9 nM. For the same molecule, the Kp at 0.25 h [4] was 1.15, the IC50 [5] was 5700 nM and the Drug uptake [6] was 11.2 uM/ml.

Work on `Cn1c(NCC(=O)c2ccc(F)cc2)nc(-c2ccncc2)cc1=O` yielded a CL [1] of 166 µL/min/mg, an IC50 [3] of 52 nM and an IC50 [5] of 10900 nM.

Work on `Cn1c(NCC(=O)c2cccc(Cl)c2)nc(-c2ccncc2)cc1=O` yielded a CL [1] of 262 µL/min/mg, an IC50 [3] of 13 nM and an IC50 [5] of 670 nM.

`Cc1cccc(C(=O)CNc2nc(-c3ccncc3)cc(=O)n2C)c1` showed a CL [1] of 262 µL/min/mg, an IC50 [3] of 38 nM and an IC50 [5] of 2200 nM.

With `Cn1c(NCC(=O)c2cccc(C#N)c2)nc(-c2ccncc2)cc1=O` the CL [1] was 133 µL/min/mg, the IC50 [3] was 13 nM and the IC50 [5] was > 53300 nM.

Work on `Cc1nc(-c2ccncc2)cc(=O)[nH]1` yielded an IC50 [3] of 3000 nM.

`CCCCc1nc(-c2ccncc2)cc(=O)[nH]1` showed an IC50 [3] of 1300 nM.

Molecule `CC(C)c1nc(-c2ccncc2)cc(=O)[nH]1` has an IC50 [3] of 2100 nM.

In the case of `CC(C)Cc1nc(-c2ccncc2)cc(=O)[nH]1`, the IC50 [3] is reported as 2400 nM.

Work on `O=c1cc(-c2ccncc2)nc(-c2ccccc2)[nH]1` yielded an IC50 [3] of 1800 nM.

`O=c1cc(-c2ccncc2)nc(Cc2ccccc2)[nH]1` showed an IC50 [3] of 1300 nM.

For `O=c1cc(-c2ccncc2)nc(CCc2ccccc2)[nH]1`, the IC50 [3] was 8900 nM.

With `O=c1cc(-c2ccncc2)nc(CCCc2ccccc2)[nH]1` the IC50 [3] was 500 nM.

Work on `Cn1c(CCCc2ccccc2)nc(-c2ccncc2)cc1=O` yielded an IC50 [3] of 90 nM.

`CCn1c(CCCc2ccccc2)nc(-c2ccncc2)cc1=O` gave an IC50 [3] of 1900 nM.

Molecule `CCCn1c(CCCc2ccccc2)nc(-c2ccncc2)cc1=O` has an IC50 [3] of 9800 nM.

`O=c1cc(-c2ccncc2)nc(CCCc2ccccc2)n1Cc1ccccc1` showed an IC50 [3] of 2200 nM.

Molecule `Cn1c(OCCc2ccccc2)nc(-c2ccncc2)cc1=O` has an IC50 [3] of 200 nM.

Work on `Cn1c(NCCc2ccccc2)nc(-c2ccncc2)cc1=O` yielded an IC50 [3] of 70 nM.

`Cn1c(NCCC2CCCCC2)nc(-c2ccncc2)cc1=O` showed an IC50 [3] of 39 nM.

`Cn1c(NCC(O)c2ccccc2)nc(-c2ccncc2)cc1=O` (configuration not stated) showed an IC50 [3] of 23 nM.

`Cn1c(N(CCCCN)CCc2ccccc2)nc(-c2ccncc2)cc1=O` gave an IC50 [3] of 130 nM.

Molecule `Cn1c(N(CCCCCN)CCc2ccccc2)nc(-c2ccncc2)cc1=O` has an IC50 [3] of 150 nM.

In the case of `Cn1c(NCC(=O)c2ccccc2F)nc(-c2ccncc2)cc1=O`, the CL [1] is reported as 158 µL/min/mg, the IC50 [3] is reported as 27 nM and the IC50 [5] is reported as 3800 nM.

Work on `Cn1c(NCC(=O)c2cccc(F)c2)nc(-c2ccncc2)cc1=O` yielded a CL [1] of 207 µL/min/mg, an IC50 [3] of 25 nM and an IC50 [5] of 4200 nM.
